# Reference: patent publication US20210077500A1, “PIKFYVE INHIBITORS FOR CANCER THERAPY” (Al Therapeutics, Inc., priority 2019, published 2021)
# Read-outs that look alike come from different tables or passages of the source.
# Columns and labels:
# [1] = system: EBC-1; test: 5-day viability assay, single agent and combination (Chou-Talalay CI); settings: Homo sapiens, EBC-1, 120 h
# Experimental: (§1) For assessment of synergistic activity, cells of each cell line were seeded at optimal density for growth onto different 96-well plates and placed into a humidified incubator (37° C., 5% CO2) to adhere overnight. The following day, the cells on each plate were treated either with a single agent (a PIKfyve inhibitor, e.g., apilimod, or a RAS pathway inhibitor) or with a combination of the two agents. Cells were treated for 120 hours and then assayed for cell viability using CellTiter-Glo™ (Promega).
# (§2) Using this method, a CI value is calculated based on the effects of each drug alone on cell viability (single agent treatment) and the effects of each drug combination, across all combinations of both agents tested. The single agent treatments consisted of 8 different concentrations of each single agent, obtained by serial dilution. The concentrations were chosen to provide a range above and below the IC50 value of the single agent (if achieved) in a given cell line.
# (§3) D1 alone and D2 alone were estimated from Hill's equation:
# (§4) Here, we utilized cells harboring MET pathway activation, particularly the EBC-1, MKN45 and Caki-1 cell lines. In addition to MET inhibitors, since MET activates the RAS pathway, we also assayed for synergistic activity with inhibitors of the RAS pathway in these cells.
# [2] = system: MKN45; test: as above; settings: Homo sapiens, MKN-45, 120 h
# Experimental: as §1, §2, §3, §4
# [3] = system: HT-29; test: CellTiter-Glo cell viability, single agent and combination (Chou-Talalay CI); type: cell-based; settings: Homo sapiens, HT-29, 120 h, HT-29 (colorectal, BRAF V600E), average of two independent experiments
# Experimental: as §1, §2, §3
# [4] = system: HCT-15; test: as above; type: cell-based; settings: Homo sapiens, HCT-15, 120 h, HCT-15 (colorectal, KRAS G13D), average of two independent experiments
# Experimental: as §1, §2, §3
# [5] = system: Caki-1; test: 5-day viability assay, single agent and combination (Chou-Talalay CI); settings: Homo sapiens, CAKI-1, 120 h
# Experimental: as §1, §2, §3, §4
# [6] = system: RKO cells; test: CellTiter-Glo cell viability, single agent and combination (Chou-Talalay CI); settings: Homo sapiens; for IC50: 120 h, read-out: IC50 (single agent), RKO (colorectal, BRAF V600E), 120 h, average of two independent experiments
# Experimental: as §1, §2
# In each experiment for a given cell line, the combination treatments consisted of 8×8 or 64 different combination treatments.
# Using this method, combinations with CI values>1 are considered antagonistic, CI values=1 are considered additive, and CI values<1 are considered synergistic.
# [7] = system: A549; test: as above; settings: Homo sapiens, A549, 120 h, read-out: IC50 (single agent)
# Experimental: (§5) For assessment of synergistic activity, cells of each cell line were seeded at optimal density for growth onto different 96-well plates and placed into a humidified incubator (37° C., 5% CO2) to adhere overnight. […] Cells were treated for 120 hours and then assayed for cell viability using CellTiter-Glo™ (Promega).
# as §2
# [8] = system: GP5d; test: as above; type: cell-based; settings: Homo sapiens, 120 h, GP5d (colorectal, KRAS G12D), average of two independent experiments
# Experimental: as §1, §2, §3
# [9] = system: LS411N; test: as above; type: cell-based; settings: 120 h, LS411N (colorectal, BRAF V600E), average of two independent experiments
# Experimental: as §1, §2, §3
# [10] = system: BxPC3; test: CellTiter-Glo cell viability, single agent; type: cell-based; settings: Homo sapiens, BXPC-3; BxPC3 (pancreatic, BRAF delV487-P492); 120 h; average of two independent experiments
# Experimental: The cell lines used in this study were derived from lung cancers, colorectal cancers, pancreatic cancer and melanoma, as shown in Table 2 below.
# as §5
# [11] = system: NCI-H1944; test: CellTiter-Glo cell viability, single agent and combination (Chou-Talalay CI); settings: Homo sapiens, NCI-H1944, 120 h, read-out: IC50 (single agent)
# Experimental: as §5, §2
# [12] = system: A375; test: as above; settings: Homo sapiens, A-375, 120 h, read-out: IC50 (single agent)
# Experimental: as §5, §2
# [13] = system: A427; test: as above; settings: Homo sapiens, A-427, 120 h, read-out: IC50 (single agent)
# Experimental: as §5, §2
# [14] = system: cell lines harboring MET pathway activation; test: 5-day viability assay, share of sensitive cell lines; type: cell-based; settings: 6/10 cell lines
# [15] = system: NCI-H596; test: 5-day viability assay; type: cell-based; settings: Homo sapiens, 120 h, NCI-H596 (NSCLC, MET Exon 14), two independent experiments
# [16] = system: SBC-5; test: 5-day viability assay; type: cell-based; settings: Homo sapiens, 120 h, SBC-5 (SCLC, MET AMP), two independent experiments
# [17] = system: DLD1; test: 5-day CellTiter-Glo viability sensitivity screen; type: cell-based; settings: Homo sapiens, DLD-1, 120 h; DLD1 colorectal (KRAS p.G13D); 5-day viability assays; read-out: IC50 (sensitive/resistant cut-off)
# [18] = system: SW480; test: 5-day CellTiter-Glo viability sensitivity screen; type: cell-based; settings: Homo sapiens, 120 h; SW480 colorectal (KRAS p.G12V); 5-day viability assays; read-out: IC50 (sensitive/resistant cut-off)
# [19] = system: colorectal cancer cell lines; test: Sensitivity screen, share of sensitive cell lines; type: cell-based; settings: nine out of 14 cell lines; 5-day CellTiter-Glo viability
# [20] = system: COLO-205; test: 5-day CellTiter-Glo viability sensitivity screen; type: cell-based; settings: Homo sapiens, 120 h; COLO-205 colorectal; 5-day viability assays; read-out: IC50 (sensitive/resistant cut-off)
# [21] = system: SW1116; test: 5-day CellTiter-Glo viability sensitivity screen; type: cell-based; settings: Homo sapiens, SW 1116, 120 h; SW1116 colorectal (KRAS p.G12A); 5-day viability assays; read-out: IC50 (sensitive/resistant cut-off)
# [22] = system: NCI-H2023; test: 5-day viability assay; type: cell-based; settings: 120 h, NCI-H2023 (NSCLC, Autocrine), two independent experiments
# [23] = system: SW620; test: 5-day CellTiter-Glo viability sensitivity screen; type: cell-based; settings: Homo sapiens, SW-620, 120 h; SW620 colorectal (KRAS p.G12V); 5-day viability assays; read-out: IC50 (sensitive/resistant cut-off)
# [24] = system: NCI-H1792; test: CellTiter-Glo cell viability, single agent and combination (Chou-Talalay CI); settings: Homo sapiens, NCI-H1792, 120 h, read-out: IC50 (single agent)
# Experimental: as §5, §2
# [25] = system: SW1417; test: 5-day CellTiter-Glo viability sensitivity screen; type: cell-based; settings: Homo sapiens, 120 h; SW1417 colorectal; 5-day viability assays; read-out: IC50 (sensitive/resistant cut-off)
# [26] = system: SNU-5; test: 5-day viability assay; type: cell-based; settings: Homo sapiens, 120 h, SNU-5 (gastric, MET AMP), two independent experiments
# [27] = system: NCI-H1993; test: 5-day viability assay; type: cell-based; settings: Homo sapiens, 120 h, NCI-H1993 (NSCLC, MET AMP), two independent experiments
# [28] = system: NCI-H2122; test: CellTiter-Glo cell viability, single agent and combination (Chou-Talalay CI); settings: Homo sapiens, NCI-H2122, 120 h, read-out: IC50 (single agent)
# Experimental: as §5, §2
# [29] = system: NCI-H820; test: 5-day viability assay; type: cell-based; settings: 120 h, NCI-H820 (NSCLC, MET AMP), two independent experiments
# [30] = system: Hs746T; test: 5-day viability assay; type: cell-based; settings: Homo sapiens, 120 h, Hs746T (gastric, AMP, Exon 14), two independent experiments
# [31] = system: MDST8; test: 5-day CellTiter-Glo viability sensitivity screen; type: cell-based; settings: 120 h; MDST8 colorectal; 5-day viability assays; read-out: IC50 (sensitive/resistant cut-off)
# [32] = system: COLO-741; test: 5-day CellTiter-Glo viability sensitivity screen; type: cell-based; settings: Homo sapiens, 120 h; COLO-741 colorectal; 5-day viability assays; read-out: IC50 (sensitive/resistant cut-off)
# [33] = system: HCT116; test: 5-day CellTiter-Glo viability sensitivity screen; type: cell-based; settings: Homo sapiens, HCT-116, 120 h; HCT116 colorectal (KRAS p.G13D); 5-day viability assays; read-out: IC50 (sensitive/resistant cut-off)
# [34] = system: NCI-H2030; test: CellTiter-Glo cell viability, single agent and combination (Chou-Talalay CI); settings: Homo sapiens, NCI-H2030, 120 h, read-out: IC50 (single agent)
# Experimental: as §5, §2
# [35] = read-out: IC50 (single agent), EBC-1, 120 h, average of two independent experiments
# [36] = read-out: IC50 (single agent), MKN45, 120 h, average of two independent experiments
# [37] = read-out: Viability (normalized)
smiles,measurement,setting,value
"CNC(=O)c1ccc(-c2cnc3ncc(Cc4ccc5ncccc5c4)n3n2)cc1F [Capmatinib, capmatinib]",IC50,[1]; [35],0.0007 µM
same,IC50,[2]; [36],0.0015 µM
"CNC(=O)c1cc(Oc2ccc(NC(=O)Nc3ccc(Cl)c(C(F)(F)F)c3)c(F)c2)ccn1 [Regorafenib, regorafenib]",IC50,[3],6.51 µM
same,IC50,[4],7.05 µM
same,IC50,[5]; read-out: IC50 (single agent),5.96 µM
same,IC50,[6],4.92 µM
same,IC50,[7],6.38 µM
"Cn1cnc2c(F)c(Nc3ccc(Br)cc3F)c(C(=O)NOCCO)cc21 [Binimetinib, binimetinib]",IC50,[1]; [35],0.075 µM
same,IC50,[8],> 5 µM
same,IC50,[2]; [36],0.533 µM
COCCOc1cnc2ccn([C@H](C)c3nnc4c(F)cc(-c5cnn(C)c5)cn34)c(=O)c2c1 [AMG 337],IC50,[1]; [35],0.004 µM
same,IC50,[2]; [36],0.007 µM
"O=C(c1ccc(F)c(F)c1Nc1ccc(I)cc1F)N1CC(O)([C@@H]2CCCCN2)C1 [Cobimetinib, cobimetinib]",IC50,[1]; [35],0.136 µM
same,IC50,[8],> 5 µM
same,IC50,[5]; read-out: IC50 (single agent),> 5 µM
same,IC50,[2]; [36],0.194 µM
same,IC50,[7],0.403 µM
"Cn1cnc2c(F)c(Nc3ccc(Br)cc3Cl)c(C(=O)NOCCO)cc21 [Selumetinib, selumetinib]",IC50,[1]; [35],0.16 µM
same,IC50,"[9]; Homo sapiens, LS-411N",0.046 µM
same,IC50,[6],3.51 µM
same,viability at 0.078 µM,[6]; [37],78%
same,viability at 0.125 µM,[6]; [37],78%
same,viability at 0.313 µM,[6]; [37],71%
same,viability at 0.625 µM,[6]; [37],74%
same,viability at 1.25 µM,[6]; [37],64%
same,viability at 2.5 µM,[6]; [37],53%
same,viability at 5 µM,[6]; [37],46%
same,viability at 100 µM,[6]; [37],32%
same,IC50,[2]; [36],1.11 µM
Cc1cccc(/C=N/Nc2cc(N3CCOCC3)nc(OCCc3ccccn3)n2)c1 [apilimod],IC50,[10],> 0.4 µM
same,IC50,[11],0.036 µM
same,IC50,"[1]; read-out: Average IC50, EBC-1 (NSCLC, MET AMP), 5-day viability assay, two independent experiments",0.113 µM
same,IC50,[12],0.104 µM
same,IC50,[13],0.08 µM
same,IC50,[8],0.209 µM
same,cell lines harboring MET pathway activation sensitive to apilimod (IC50 less than 200 nM),[14],60%
same,IC50,[15],0.304 µM
same,IC50,[16],0.108 µM
same,IC50,[17],< 0.2 µM
same,IC50,[18],< 0.2 µM
same,colorectal cancer cell lines sensitive to apilimod (average IC50 less than 200 nM),[19],64%
same,IC50,[20],< 0.2 µM
same,IC50,[21],< 0.2 µM
same,IC50,[22],0.073 µM
same,IC50,[9],0.089 µM
same,IC50,[23],< 0.2 µM
same,IC50,[24],> 0.4 µM
same,IC50,[25],> 0.2 µM
same,IC50,[5]; read-out: Average IC50,0.373 µM
same,IC50,[26],0.862 µM
same,IC50,[27],0.877 µM
same,IC50,[28],> 0.4 µM
same,IC50,[29],0.103 µM
same,IC50,[6],> 0.2 µM
same,viability at 0.023 µM,[6]; [37],98%
same,viability at 0.035 µM,[6]; [37],93%
same,viability at 0.053 µM,[6]; [37],96%
same,viability at 0.079 µM,[6]; [37],93%
same,viability at 0.119 µM,[6]; [37],97%
same,viability at 0.178 µM,[6]; [37],70%
same,viability at 0.267 µM,[6]; [37],53%
same,viability at 0.4 µM,[6]; [37],44%
same,IC50,[30],0.108 µM
same,IC50,"[2]; read-out: Average IC50, MKN45 (gastric, MET AMP), 5-day viability assay, two independent experiments",0.191 µM
same,IC50,[31],> 0.2 µM
same,IC50,[32],> 0.2 µM
same,IC50,[7],0.049 µM
same,IC50,[33],< 0.2 µM
same,IC50,[34],0.228 µM
Cn1nccc1Nc1nccc(-c2ccn([C@H](CO)c3ccc(Cl)c(F)c3)c(=O)c2)n1 [GDC-0994],IC50,[1]; [35],4.15 µM
same,IC50,[2]; [36],5.33 µM
Cc1cccc(/C=N/Nc2cc(N3CCOCC3)n3nc(-c4ccncc4)cc3n2)c1 [APY-0201],IC50,[1]; [35],0.171 µM
same,IC50,[2]; [36],0.269 µM
"C[C@@H](Oc1cc(-c2cnn(C3CCNCC3)c2)cnc1N)c1c(Cl)ccc(F)c1Cl [Crizotinib, crizotinib]",IC50,[1]; [35],0.01 µM
same,IC50,[2]; [36],0.013 µM
CC(C)Nc1cc(-c2c[nH]c(C(=O)N[C@H](CO)c3cccc(Cl)c3)c2)c(Cl)cn1 [BVD-523],IC50,[1]; [35],0.866 µM
same,IC50,[6],0.945 µM
same,IC50,[2]; [36],0.433 µM
"CCCS(=O)(=O)Nc1ccc(F)c(C(=O)c2c[nH]c3ncc(-c4ccc(Cl)cc4)cc23)c1F [Vemurafenib, vemurafenib]",IC50,[3],2.47 µM
same,IC50,"[9]; Homo sapiens, LS-411N",0.35 µM
same,IC50,[4],> 10 µM
same,IC50,[6],7.12 µM
"C[C@@H](c1ccc2nccn2c1)n1nnc2ncc(-c3cnn(C)c3)nc21 [Savolitinib, savolitinib]",IC50,[1]; [35],0.0015 µM
same,IC50,[2]; [36],0.003 µM
"COc1cc2nccc(Oc3ccc(NC(=O)C4(C(=O)Nc5ccc(F)cc5)CC4)cc3)c2cc1OC [Cabozantinib, cabozantinib]",IC50,[1]; [35],0.028 µM
same,IC50,[2]; [36],0.067 µM
"CC(=O)Nc1cccc(-n2c(=O)n(C3CC3)c(=O)c3c(Nc4ccc(I)cc4F)n(C)c(=O)c(C)c32)c1 [Trametinib, trametinib]",IC50,[1]; [35],0.01 µM
same,IC50,[12],0.002 µM
same,IC50,[3],0.003 µM
same,IC50,[8],> 5 µM
same,IC50,"[9]; Homo sapiens, LS-411N",0.001 µM
same,IC50,[24],0.033 µM
same,IC50,[5]; read-out: IC50 (single agent),0.047 µM
same,IC50,[6],0.032 µM
same,IC50,[2]; [36],0.018 µM
same,IC50,[7],0.017 µM
"CN1CCC(COc2cnc(-c3cccc(Cn4nc(-c5cccc(C#N)c5)ccc4=O)c3)nc2)CC1 [Tepotinib, tepotinib]",IC50,[1]; [35],0.013 µM
same,IC50,[2]; [36],0.016 µM
